In publication PMC10338470, “Phase 1 study of GSK3368715, a type I PRMT inhibitor, in patients with advanced solid tumors” (British Journal of Cancer, 2023):
Where “and” joins values, the source holds several entries; their conditions need not be identical. Equal values may be shown once. Marks after values point to notes of the source that are not given here.

How the values were obtained:
[1] = test system: acute myeloid leukemia (AML) cell lines; design: method as in PMID 31257072; settings: acute myeloid leukemia (AML) cell lines ref [6]; cited from earlier work
[2] = Phase 1 safety: adverse events, dose-limiting toxicities, thromboembolic events (NCI-CTCAE v5.0); assay type: in vivo, human
Procedure: The study was approved by the ethics committee at every participating institution and was conducted according to the recommendations of Good Clinical Practice and the Declaration of Helsinki. All patients provided written informed consent to participate in the study.
Part 1 of this study included a dose-escalation cohort to assess the incidence of dose-limiting toxicities (DLTs) and adverse events, and a PK/PD cohort to characterize the PK/PD profile of GSK3368715 (Fig. 1). A food-effect cohort and a second study phase (part 2) to assess the preliminary clinical activity of GSK3368715 were also planned.
For each dosing group in the dose-escalation cohort, GSK3368715 was administered on day 1, no treatment was administered on days 2 and 3 (to characterize single-dose PK), and daily dosing continued thereafter until disease progression, unacceptable toxicity, or withdrawal of consent. Study treatment was dosed at approximately the same time of day (±4 h), with no food for 1 h before and 2 h after each dose.
The study resumed under a protocol amendment with the PK/PD cohort starting at a daily dose of 100 mg, and dose escalation was limited to 50-mg increments. The incidence and frequency of TEEs were added to the DLT criteria (grade 2 TEE requiring systemic anticoagulation or ≥grade 3 TEE) with extended monitoring to 8 weeks or until study discontinuation, whichever occurred first. Further, eligibility criteria were modified to exclude patients at high risk of thrombosis (ie, Khorana score ≥3 or prior medical history of TEE). Patients with a Khorana score of 2 were considered for prophylactic anticoagulation if deemed appropriate by the investigator. Khorana score is a risk assessment model based on clinical and laboratory parameters to classify the risk for chemotherapy-associated venous thromboembolism (Supplemental Table 2).
Adverse events were coded using the standard MedDRA groupings and graded according to NCI-CTCAE version 5.0. Clinical chemistry, urinalysis, and coagulation tests were performed predose on days 1, 8, 15, 22, and weekly thereafter. Tumor imaging occurred every 8 weeks until week 33, and then every 16 weeks thereafter.
The Neuenschwander Continual Reassessment Method dose-escalation design has been previously described. […] Additionally, following the protocol amendment, dose escalations were limited to 50-mg increments.
Adverse events and DLTs were summarized descriptively by dose cohort. Pharmacokinetic parameters of GSK3368715 and its metabolites (GSK3963583 and GSK3983164) were estimated in the PK/PD population (all participants for whom a PK sample was obtained) using a noncompartmental analysis model (WinNonlin version 8.1) and summarized descriptively. Best overall response as per RECIST 1.1 was summarized descriptively by dose cohort. Levels of tumor cell and plasma pharmacodynamic biomarkers were also summarized descriptively.

SMILES: CCOCC1(COCC)CCC(c2[nH]ncc2CN(C)CCNC)CC1 [GSK3368715]
- Cell lines with cytotoxic responses [1]: 50%
- Grade 3 TEE events [2]: 8
- AE: Anemia ([2]; 50 mg (n = 3)): 1 (33) n (%)
- AE: Diarrhea ([2]; 50 mg (n = 3)): 1 (33) n (%)
- AE: Dyspnea ([2]; 50 mg (n = 3)): 1 (33) n (%)
- AE: Fatigue ([2]; 50 mg (n = 3)): 1 (33) n (%)
- AE: Nausea ([2]; 50 mg (n = 3)): 2 (67) n (%)
- AE: Neutrophil count decreased ([2]; 50 mg (n = 3)): 0 n (%)
- AE: Pulmonary embolism ([2]; 50 mg (n = 3)): 0 n (%)
- AE: Pyrexia ([2]; 50 mg (n = 3)): 1 (33) n (%)
- AE: Vomiting ([2]; 50 mg (n = 3)): 2 (67) n (%)
- Any AE (all AEs and all grades) ([2]; 50 mg (n = 3)): 3 (100) n (%)
- GSK3368715-related Grade 3 AE: Aortic thrombosis ([2]; 50 mg (n = 3)): 0 n (%)
- GSK3368715-related Grade 3 AE: Atrial fibrillation ([2]; 50 mg (n = 3)): 0 n (%)
- GSK3368715-related Grade 3 AE: Deep vein thrombosis ([2]; 50 mg (n = 3)): 0 n (%)
- GSK3368715-related Grade 3 AE: Neutrophil count decreased ([2]; 50 mg (n = 3)): 0 n (%)
- GSK3368715-related Grade 4 AE: Lymphocyte count decreased ([2]; 50 mg (n = 3)): 0 n (%)
- GSK3368715-related Grade 4 AE: Platelet count decreased ([2]; 50 mg (n = 3)): 0 n (%)
- Dose-limiting toxicities (DLTs) ([2]; 50 mg dose group): no DLTs
- Thromboembolic event grade: Portal vein thrombosis ([2]; 50 mg, patient with cholangiocarcinoma): 2
- AE: Anemia ([2]; 100 mg (n = 16)): 6 (38)^b n (%)
- AE: Diarrhea ([2]; 100 mg (n = 16)): 5 (31)^b n (%)
- AE: Dyspnea ([2]; 100 mg (n = 16)): 2 (13) n (%)
- AE: Fatigue ([2]; 100 mg (n = 16)): 6 (38) n (%)
- AE: Nausea ([2]; 100 mg (n = 16)): 3 (19) n (%)
- AE: Neutrophil count decreased ([2]; 100 mg (n = 16)): 1 (6)^d,e n (%)
- AE: Pulmonary embolism ([2]; 100 mg (n = 16)): 2 (13)^c n (%)
- AE: Pyrexia ([2]; 100 mg (n = 16)): 5 (31) n (%)
- AE: Vomiting ([2]; 100 mg (n = 16)): 2 (13) n (%)
- Any AE (all AEs and all grades) ([2]; 100 mg (n = 16)): 15 (94) n (%)
- GSK3368715-related Grade 3 AE: Aortic thrombosis ([2]; 100 mg (n = 16)): 0 n (%)
- GSK3368715-related Grade 3 AE: Atrial fibrillation ([2]; 100 mg (n = 16)): 0 n (%)
- GSK3368715-related Grade 3 AE: Deep vein thrombosis ([2]; 100 mg (n = 16)): 0 n (%)
- GSK3368715-related Grade 3 AE: Neutrophil count decreased ([2]; 100 mg (n = 16)): 1 (6)^e n (%)
- GSK3368715-related Grade 4 AE: Lymphocyte count decreased ([2]; 100 mg (n = 16)): 0 n (%)
- GSK3368715-related Grade 4 AE: Platelet count decreased ([2]; 100 mg (n = 16)): 0 n (%)
- Thromboembolic event grade: Pulmonary embolism ([2]; 100 mg, patient with head and neck squamous cell carcinoma, study drug withdrawn): 2
- Thromboembolic event grade: Pulmonary embolism ([2]; 100 mg, patient with pancreas adenocarcinoma): 3
- Grade 5 pulmonary embolism, number ([2]; 200 mg): 1
- AE: Anemia ([2]; 200 mg (n = 12)): 2 (17) n (%)
- AE: Diarrhea ([2]; 200 mg (n = 12)): 1 (8) n (%)
- AE: Dyspnea ([2]; 200 mg (n = 12)): 1 (8) n (%)
- AE: Fatigue ([2]; 200 mg (n = 12)): 1 (8) n (%)
- AE: Nausea ([2]; 200 mg (n = 12)): 4 (33) n (%)
- AE: Neutrophil count decreased ([2]; 200 mg (n = 12)): 3 (25) n (%)
- AE: Pyrexia ([2]; 200 mg (n = 12)): 0 n (%)
- AE: Vomiting ([2]; 200 mg (n = 12)): 3 (25) n (%)
- Any AE (all AEs and all grades) ([2]; 200 mg (n = 12)): 12 (100) n (%)
- GSK3368715-related Grade 3 AE: Aortic thrombosis ([2]; 200 mg (n = 12)): 1 (8)^b,g n (%)
- GSK3368715-related Grade 3 AE: Atrial fibrillation ([2]; 200 mg (n = 12)): 1 (8)^g n (%)
- GSK3368715-related Grade 3 AE: Deep vein thrombosis ([2]; 200 mg (n = 12)): 1 (8) n (%)
- GSK3368715-related Grade 3 AE: Neutrophil count decreased ([2]; 200 mg (n = 12)): 0 n (%)
- GSK3368715-related Grade 4 AE: Lymphocyte count decreased ([2]; 200 mg (n = 12)): 1 (8)^b n (%)
- GSK3368715-related Grade 4 AE: Platelet count decreased ([2]; 200 mg (n = 12)): 1 (8)^b,g n (%)
- Thromboembolic event grade: Pulmonary embolism ([2]; 200 mg, patient with epithelioid hemangioendothelioma): 3
- Thromboembolic event grade: Pulmonary embolism ([2]; 200 mg, patient with mucoepidermoid carcinoma of parotid): 3
- Thromboembolic event grade: Pulmonary embolism ([2]; 200 mg, patient with pancreas adenocarcinoma mucinous, fatal): 5
- Participants with grade 2 portal vein thrombosis ([2]; 50-mg dose group): 1
- Dose-limiting toxicities (DLTs) ([2]; 100-mg dose group): no DLTs
- Patients with grade 3 decrease in neutrophil count leading to dose reduction ([2]; 100-mg dose group): 1 patient
- Pulmonary embolisms reported (1 grade 2, 1 grade 3) ([2]; 100-mg dose group): 2
- Grade 3 aortic thrombosis events ([2]; 200-mg dose group): 1
- Grade 3 deep vein thrombosis events ([2]; 200-mg dose group): 1
- Grade 3 portal vein thrombosis events ([2]; 200-mg dose group): 2
- Grade 3 pulmonary embolism events ([2]; 200-mg dose group): 4
- Patients with grade 3 aortic thrombosis ([2]; 200-mg dose group): 1 patient
- Patients with grade 3 atrial fibrillation ([2]; 200-mg dose group): 1 patient
- Patients with grade 3 deep vein thrombosis ([2]; 200-mg dose group): 1 patient
- Patients with grade 4 decrease in lymphocyte count ([2]; 200-mg dose group): 1 patient
- Patients with grade 4 decrease in platelet count ([2]; 200-mg dose group): 2 patients
- Patients with dose-limiting toxicities (DLTs) ([2]; 200-mg dose group (n = 12), aortic thrombosis, atrial fibrillation, decrease in platelet count): 25%
- Fatal (grade 5) SAEs ([2]; 200-mg dose group, PE and intracranial hemorrhage): 2
- AE: Anemia ([2]; Total (N = 31)): 9 [29%] n (%) and 9 (29) n (%)
- AE: Diarrhea ([2]; Total (N = 31)): 7 (23) n (%)
- AE: Dyspnea ([2]; Total (N = 31)): 4 (13) n (%)
- AE: Fatigue ([2]; Total (N = 31)): 8 [26%] n (%) and 8 (26) n (%)
- AE: Nausea ([2]; Total (N = 31)): 9 [29%] n (%) and 9 (29) n (%)
- AE: Neutrophil count decreased ([2]; Total (N = 31)): 4 (13) n (%)
- AE: Pyrexia ([2]; Total (N = 31)): 6 (19) n (%)
- AE: Vomiting ([2]; Total (N = 31)): 7 (23) n (%)
- Any AE (all AEs and all grades) ([2]; Total (N = 31)): 30 [97%] n (%) and 30 (97) n (%)
- GSK3368715-related AEs by maximum grade: Grade 3 ([2]; Total (N = 31)): 4 (13) n (%)
- GSK3368715-related AEs by maximum grade: Grade 4 ([2]; Total (N = 31)): 2 (6) n (%)
- Number of grade 3 TEEs ([2]; across dose groups (abstract)): 8
- Patients experiencing thromboembolic events (TEEs) ([2]; across dose groups, N = 31, 95% confidence interval 14–48%): 29%
- Number of thromboembolic events (TEEs) ([2]; across dose groups, in 9 participants): 12
- Changes from baseline for clinical chemistry, hematology, urinalysis, or echocardiograms (ECGs) ([2]; all dose groups): No clinically significant trends
- Patients who discontinued due to a DLT ([2]; all dose groups, N = 31): 3
- Patients who discontinued due to an AE ([2]; all dose groups, N = 31): 5 patients
- Patients with ≥1 grade 3 or grade 4 treatment emergent AEs ([2]; all dose groups, N = 31): 52%
- Patients with ≥1 serious AE (SAE) ([2]; all dose groups, N = 31): 39%
